Among the data in the supplement of paper PMC10307832 are relative viability values, retold here.

What all share (experiment): relative viability (nuclei count vs DMSO), 5 days (fraction); higher = more cells survive
Compound in the assay “4EGI-1 + Navitoclax”: O=C(O)C(Cc1ccccc1[N+](=O)[O-])=NNc1nc(-c2ccc(Cl)c(Cl)c2)cs1 (mixture of isomers) [4EGI-1] + CC1(C)CCC(c2ccc(Cl)cc2)=C(CN2CCN(c3ccc(C(=O)NS(=O)(=O)c4ccc(N[C@H](CCN5CCOCC5)CSc5ccccc5)c(S(=O)(=O)C(F)(F)F)c4)cc3)CC2)C1 [Navitoclax] (partner 0.5 µM)
Summed up: (§1)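 Each reported value is a median over duplicate plates. It expresses relative viability: treated-well nuclei count divided by vehicle-well nuclei count. Lung cancer cell lines in 1536-well plates were dosed by pin tool a day after seeding, alone with one drug or with a fixed anchor-drug dose plus five library-drug doses (not always all listed) in √10 steps, and nuclei were counted after 5 days.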

Compound in the assay “XMD8-85 + Dasatinib”: CN1CCN(CC1)C2=CC(=C(C=C2)NC3=NC=C4C(=N3)N(C5=CC=CC=C5C(=O)N4C)C)OC [XMD8-85] + Cc1nc(Nc2ncc(C(=O)Nc3c(C)cccc3Cl)s2)cc(N2CCN(CCO)CC2)n1 [Dasatinib] (partner 0.075 µM)
Summed up: as §1

Compound in the assay “XMD8-85 + OSI-027”: CN1CCN(CC1)C2=CC(=C(C=C2)NC3=NC=C4C(=N3)N(C5=CC=CC=C5C(=O)N4C)C)OC [XMD8-85] + COc1cccc2cc(-c3nc([C@H]4CC[C@H](C(=O)O)CC4)n4ncnc(N)c34)[nH]c12 [OSI-027] (partner 0.5 µM)
Summed up: as §1

Compound in the assay “4EGI-1 + Decitabine”: O=C(O)C(Cc1ccccc1[N+](=O)[O-])=NNc1nc(-c2ccc(Cl)c(Cl)c2)cs1 (mixture of isomers) [4EGI-1] + Nc1ncn([C@H]2C[C@H](O)[C@@H](CO)O2)c(=O)n1 [Decitabine] (partner 2 µM)
In outline:
as §1

Compound in a further assay: CN1CCN(CC1)C2=CC(=C(C=C2)NC3=NC=C4C(=N3)N(C5=CC=CC=C5C(=O)N4C)C)OC [XMD8-85]
Summed up:
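Viability here means nuclei in treated wells divided by nuclei in vehicle wells, reported as the median across plates. Only plates with control CV below 25% and at least one doubling passed. Lung cancer cell lines in 1536-well plates were exposed to five √10-spaced library-drug doses for 5 days and counted from 4× Hoechst images in MetaXpress.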

As to NCI-H1792, the relative viability came out at 0.618 with 4EGI-1 + Navitoclax (first compound 0.5 µM); 0.498 with 4EGI-1 + Navitoclax (first compound 1.581 µM); 0.607 with 4EGI-1 + Navitoclax (first compound 5 µM); 0.552 with 4EGI-1 + Navitoclax (first compound 15.81 µM); 0.542 with 4EGI-1 + Navitoclax (first compound 50 µM); 0.749 with XMD8-85 + Dasatinib (first compound 0.253 µM). Moreover, the relative viability with XMD8-85 + Dasatinib (first compound 2.53 µM) amounted to 1.15; with XMD8-85 + Dasatinib (first compound 8 µM), 0.85; in the assay with XMD8-85 + OSI-027 (first compound 0.253 µM), 0.856; in the assay with XMD8-85 + OSI-027 (first compound 2.53 µM) it was 0.981; with XMD8-85 + OSI-027 (first compound 8 µM), 0.896; in the assay with 4EGI-1 + Decitabine (first compound 0.5 µM), 0.568. Also, the relative viability with 4EGI-1 + Decitabine (first compound 1.581 µM) worked out at 0.715; with 4EGI-1 + Decitabine (first compound 5 µM), 0.6; with 4EGI-1 + Decitabine (first compound 15.81 µM), 0.488; in the assay with 4EGI-1 + Decitabine (first compound 50 µM), 0.369; in the assay with XMD8-85 (0.253 µM) it was 0.904; with XMD8-85 (2.53 µM), 1.14. The relative viability with XMD8-85 (8 µM) is 0.704.
